Results on one compound are retold here after BindingDB's records for doi:10.1021/jm200390u (Chosun University, 2011).

This test concerns the target T1, 15-hydroxyprostaglandin dehydrogenase [NAD(+)] (Homo sapiens, UniProt P15428).
T1 sequence (P15428 whole entry): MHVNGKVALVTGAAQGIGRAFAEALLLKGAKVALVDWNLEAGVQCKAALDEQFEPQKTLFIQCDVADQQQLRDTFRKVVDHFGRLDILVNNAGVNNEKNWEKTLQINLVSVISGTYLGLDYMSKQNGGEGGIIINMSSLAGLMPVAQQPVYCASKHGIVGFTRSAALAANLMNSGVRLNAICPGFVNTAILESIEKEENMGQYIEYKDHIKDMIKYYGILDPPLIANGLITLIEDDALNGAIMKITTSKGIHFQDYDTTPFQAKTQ
Briefly: Inhibition of human 15-PGDH expressed in Escherichia coli using PGE2 as substrate and NAD+ as coenzyme assessed as formation of NADH by spectrophotometric analysis.

As for `O=C1N=C(O)SC1=Cc1ccc(OCCC2CCCCC2)cc1`, the IC50 stood at 51 nM.

By IC50 is commonly meant the point on the concentration scale where inhibition reaches its midpoint.
